Assay results from PubChem BioAssay (NCI).
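Results reflect a 48-hour exposure of cells in 96-well plates to compound at five concentrations. TGI: concentration producing complete growth inhibition.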

Legend:
Experiment in all cases: growth of human tumour cells (NCI), 48 h
CCRF-CEM leukemia = system: CCRF-CEM leukemia
RPMI-8226 leukemia = system: RPMI-8226 leukemia
UACC-62 melanoma = system: UACC-62 melanoma
DMS 273 small cell lung = system: DMS 273 small cell lung
COLO 205 colon = system: COLO 205 colon
SF-539 CNS = system: SF-539 CNS
ACHN renal = system: ACHN renal
NCI-H460 lung = system: NCI-H460 lung
K-562 leukemia = system: K-562 leukemia
HOP-92 NSCLC = system: HOP-92 NSCLC
SR leukemia = system: SR leukemia
SN12C renal = system: SN12C renal
MOLT-4 leukemia = system: MOLT-4 leukemia
MALME-3M melanoma = system: MALME-3M melanoma
SK-OV-3 ovarian = system: SK-OV-3 ovarian
SNB-75 CNS = system: SNB-75 CNS
RXF-631 renal = system: RXF-631 renal
HCC-2998 colon = system: HCC-2998 colon
DMS 114 small cell lung = system: DMS 114 small cell lung
NCI-H23 lung = system: NCI-H23 lung
HCT-116 colon = system: HCT-116 colon
LXFL 529 NSCLC = system: LXFL 529 NSCLC
HOP-62 NSCLC = system: HOP-62 NSCLC
UO-31 renal = system: UO-31 renal
DLD-1 colon = system: DLD-1 colon
OVCAR-4 ovarian = system: OVCAR-4 ovarian
786-0 renal = system: 786-0 renal
M19-MEL melanoma = system: M19-MEL melanoma
NCI-H522 lung = system: NCI-H522 lung
SK-MEL-28 melanoma = system: SK-MEL-28 melanoma
HL-60(TB) leukemia = system: HL-60(TB) leukemia
CAKI-1 renal = system: CAKI-1 renal
SNB-78 CNS = system: SNB-78 CNS
IGROV1 ovarian = system: IGROV1 ovarian
M14 melanoma = system: M14 melanoma
SK-MEL-2 melanoma = system: SK-MEL-2 melanoma
SF-268 CNS = system: SF-268 CNS
NCI-H226 lung = system: NCI-H226 lung
RXF 393 renal = system: RXF 393 renal
KM20L2 colon = system: KM20L2 colon
SW-620 colon = system: SW-620 colon
OVCAR-3 ovarian = system: OVCAR-3 ovarian
KM12 colon = system: KM12 colon
HT29 colon = system: HT29 colon
A549 NSCLC = system: A549 NSCLC
HCT-15 colon = system: HCT-15 colon
XF 498 CNS = system: XF 498 CNS
OVCAR-5 ovarian = system: OVCAR-5 ovarian
SK-MEL-5 melanoma = system: SK-MEL-5 melanoma
EKVX NSCLC = system: EKVX NSCLC
OVCAR-8 ovarian = system: OVCAR-8 ovarian
LOX IMVI melanoma = system: LOX IMVI melanoma
SF-295 CNS = system: SF-295 CNS
TK-10 renal = system: TK-10 renal
UACC-257 melanoma = system: UACC-257 melanoma

Compound `CCCN(CCC)C1CC(n2cc(C)c(=O)[nH]c2=O)OC1CO` (centres undefined) has a TGI (CCRF-CEM leukemia) greater than 100 µM, a TGI (RPMI-8226 leukemia) greater than 100 µM and a TGI (UACC-62 melanoma) greater than 100 µM. It also gave a TGI (DMS 273 small cell lung) greater than 100 µM, a TGI (COLO 205 colon) greater than 100 µM and a TGI (SF-539 CNS) greater than 100 µM. It also gave a TGI (ACHN renal) greater than 100 µM, a TGI (NCI-H460 lung) greater than 100 µM and a TGI (K-562 leukemia) greater than 100 µM. The TGI (HOP-92 NSCLC) was greater than 100 µM, the TGI (SR leukemia) was greater than 100 µM and the TGI (SN12C renal) was greater than 100 µM. For the same compound, the TGI (MOLT-4 leukemia) was greater than 100 µM, the TGI (MALME-3M melanoma) was greater than 100 µM and the TGI (SK-OV-3 ovarian) was greater than 100 µM. It also gave a TGI (SNB-75 CNS) greater than 100 µM, a TGI (RXF-631 renal) greater than 100 µM and a TGI (HCC-2998 colon) greater than 100 µM. For the same compound, the TGI (DMS 114 small cell lung) was greater than 100 µM, the TGI (NCI-H23 lung) was greater than 100 µM and the TGI (HCT-116 colon) was greater than 100 µM. The TGI (LXFL 529 NSCLC) was greater than 100 µM, the TGI (HOP-62 NSCLC) was greater than 100 µM and the TGI (UO-31 renal) was greater than 100 µM. The TGI (DLD-1 colon) was greater than 100 µM, the TGI (OVCAR-4 ovarian) was greater than 100 µM and the TGI (786-0 renal) was greater than 100 µM. It also gave a TGI (M19-MEL melanoma) greater than 100 µM, a TGI (NCI-H522 lung) greater than 100 µM and a TGI (SK-MEL-28 melanoma) greater than 100 µM. It also gave a TGI (HL-60(TB) leukemia) greater than 100 µM, a TGI (CAKI-1 renal) greater than 100 µM and a TGI (SNB-78 CNS) greater than 100 µM. The TGI (IGROV1 ovarian) was greater than 100 µM, the TGI (M14 melanoma) was greater than 100 µM and the TGI (SK-MEL-2 melanoma) was greater than 100 µM. It also gave a TGI (SF-268 CNS) greater than 100 µM and a TGI (NCI-H226 lung) greater than 100 µM.

In the case of `COC1CCC(O)C(CO)O1` (centres undefined), the TGI (CCRF-CEM leukemia) is reported as 77.3 µM, the TGI (RXF 393 renal) is reported as greater than 100 µM and the TGI (KM20L2 colon) is reported as greater than 100 µM. The TGI (UACC-62 melanoma) was greater than 100 µM, the TGI (SW-620 colon) was greater than 100 µM and the TGI (OVCAR-3 ovarian) was greater than 100 µM. The TGI (KM12 colon) was greater than 100 µM, the TGI (SF-539 CNS) was greater than 100 µM and the TGI (HT29 colon) was greater than 100 µM. For the same compound, the TGI (ACHN renal) was greater than 100 µM, the TGI (NCI-H460 lung) was greater than 100 µM and the TGI (K-562 leukemia) was 47.6 µM. The TGI (HOP-92 NSCLC) was greater than 100 µM, the TGI (SR leukemia) was greater than 100 µM and the TGI (SN12C renal) was greater than 100 µM. It also gave a TGI (MOLT-4 leukemia) greater than 100 µM, a TGI (MALME-3M melanoma) of 65.3 µM and a TGI (SK-OV-3 ovarian) greater than 100 µM. It also gave a TGI (SNB-75 CNS) greater than 100 µM, a TGI (A549 NSCLC) greater than 100 µM and a TGI (HCC-2998 colon) greater than 100 µM. The TGI (NCI-H23 lung) was greater than 100 µM, the TGI (HCT-116 colon) was greater than 100 µM and the TGI (LXFL 529 NSCLC) was greater than 100 µM. It also gave a TGI (HOP-62 NSCLC) greater than 100 µM, a TGI (HCT-15 colon) greater than 100 µM and a TGI (UO-31 renal) greater than 100 µM. The TGI (XF 498 CNS) was greater than 100 µM, the TGI (OVCAR-5 ovarian) was greater than 100 µM and the TGI (SK-MEL-5 melanoma) was greater than 100 µM. The TGI (DLD-1 colon) was greater than 100 µM, the TGI (OVCAR-4 ovarian) was greater than 100 µM and the TGI (EKVX NSCLC) was greater than 100 µM. It also gave a TGI (OVCAR-8 ovarian) greater than 100 µM, a TGI (LOX IMVI melanoma) of 65.4 µM and a TGI (M19-MEL melanoma) greater than 100 µM. The TGI (NCI-H522 lung) was 26.9 µM, the TGI (SK-MEL-28 melanoma) was greater than 100 µM and the TGI (HL-60(TB) leukemia) was 87 µM. The TGI (SNB-78 CNS) was greater than 100 µM, the TGI (SF-295 CNS) was greater than 100 µM and the TGI (IGROV1 ovarian) was 61.2 µM. For the same compound, the TGI (M14 melanoma) was greater than 100 µM, the TGI (SK-MEL-2 melanoma) was greater than 100 µM and the TGI (TK-10 renal) was greater than 100 µM. The TGI (UACC-257 melanoma) was greater than 100 µM.
